Columns and labels:
Type in all cases: in vivo
[1] = system: ABUTILON THEOPHRASTI, MEDIC.; experiment: Postemergence herbicidal evaluation, ABUTH (Velvetleaf); details: rated four to five weeks after treatment, averaged
How it was run: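 This postemergence herbicide test used two-week-old velvetleaf seedlings grown in jiffy flats. Each compound was sprayed at 40 psi as a dispersion in 50/50 acetone/water with 0.5% TWEEN®20 surfactant. Plants then received routine greenhouse care. After four to five weeks, injury was scored visually on a 0-9 scale against a control, and replicate tests were averaged.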

CHENOPODIUM ALBUM, L. = experiment: Preemergence herbicidal evaluation, CHEAL (Lambsquarters, Common); details: rated four to five weeks after treatment
How it was run: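 Greenhouse preemergence test; treated soil cups received compound in aqueous acetone (about 0.125 to 0.50 kg/ha) right after sowing and were assessed visually 4-5 weeks later on a 0-9 scale compared with control plants.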

[2] = system: ECHINOCHLOA ORYZOIDES (ARD.)FRITSCH; experiment: Preemergence weed control under flooded paddy conditions, ECHORC (Watergrass (Calif.)); details: preemergence, 3-4 weeks after treatment
How it was run: (§1)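 Visual 0-9 score (stand, vigor, malformation, size, chlorosis, appearance vs untreated control) taken 3-4 wk after treatment. Test compounds were added into flood water (1.5-3 cm over silt loam) as 50/50 v/v aqueous/acetone, equivalent to about 0.5-0.063 kg/ha a.i.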

[3] = system: ORYZA SATIVA, L. TEBONNET; experiment: Rice tolerance to post-transplant applications under flooded paddy conditions, ORYSAT (Rice, Tebonnet); details: post-transplant rice, 3-4 weeks after treatment
How it was run: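 Visual 0-9 rating against untreated control (stand, vigor, malformation, size, chlorosis, overall appearance), taken 3-4 weeks after treatment. Flooded silt loam, water at 1.5-3 cm; two 10-day-old seedlings per pot; compound applied to flooded soil surface 3 days post-transplant at ~0.5-0.063 kg/ha.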

[4] = system: ECHINOCHLOA CRUS-GALLI, (L) BEAU; experiment: Preemergence herbicidal evaluation, ECHCG (Barnyardgrass); details: rated four to five weeks after treatment
Source text: (§2) Results of herbicide evaluation are expressed on a rating scale (0-9). The scale is based upon a visual observation of plant stand, vigor, malformation, size, chlorosis and overall plant appearance as compared with a control.
(§3) The preemergence herbicidal activity of the test compounds of the present invention is exemplified by the following tests in which the seeds of a variety of monocotyledonous and dicotyledonous plants are separately mixed with potting soil and planted on top of approximately one inch of soil in separate pint cups. […] The treated cups are then placed on greenhouse benches, watered and cared for in accordance with conventional greenhouse procedures. From four to five weeks after treatment, the tests are terminated and each cup is examined and rated according to the rating system provided in Example 40.
(§4) The compounds evaluated are reported by compound number given in Example 40.

[…], PRESL. = Preemergence weed control under flooded paddy conditions, MOOVA (Monochoria); details: preemergence, 3-4 weeks after treatment
How it was run: as §1

ZEA MAYS L. = experiment: Preemergence herbicidal evaluation, ZEAMX (Corn, Field); details: rated four to five weeks after treatment
Source text: as §2, §3, §4

GALIUM APARINE [5] = experiment: Preemergence herbicidal evaluation, GALAP (Galium); details: rated four to five weeks after treatment
Source text: as §2, §3, §4

[6] = system: CYPERUS SEROTINUS, ROTTB.; experiment: Preemergence weed control under flooded paddy conditions, CYPSE (Flatsedge); details: preemergence, 3-4 weeks after treatment
How it was run: as §1

[7] = system: GLYCINE MAX(L) MERR. CV. WILLIAMS; experiment: Postemergence herbicidal evaluation, GLXMAW (Soybean, Williams); details: crop, rated four to five weeks after treatment, averaged
How it was run: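 Herbicidal injury to Williams soybean was assessed after a postemergence spray of two-week-old seedlings grown in jiffy flats. Compounds were dispersed in an acetone/water (50/50) mixture with 0.5% TWEEN®20 surfactant and applied at 40 psi. After four to five weeks in the greenhouse, stand, vigor, malformation, size and chlorosis were compared against a control on a 0-9 scale, and results from replicate tests were averaged.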

SAGITTARIA PYGMAEA, L. = experiment: Preemergence weed control under flooded paddy conditions, SAGPY (Arrowhead (Pygmaea)); details: preemergence, 3-4 weeks after treatment
How it was run: as §1

CASSIA OBTUSIFOLIA, L. = experiment: Preemergence herbicidal evaluation, CASOB (Sicklepod); details: Rate 0.500 kg/ha, rated four to five weeks after treatment
Source text: as §2, §3, §4

GALIUM APARINE [8] = experiment: Postemergence herbicidal evaluation, GALAP (Galium); details: rated four to five weeks after treatment, averaged
How it was run: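 In this postemergence greenhouse test, two-week-old Galium aparine seedlings grown in jiffy flats received a 40 psi spray of compound in acetone/water (50/50) with 0.5% TWEEN®20 surfactant. After four to five weeks, stand, vigor, malformation, size, chlorosis and overall appearance were compared with untreated controls on a 0-9 scale, averaging multiple tests.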

CYPERUS IRIA = experiment: Preemergence weed control under flooded paddy conditions, CYPIR (Rice Flatsedge); details: 0.500 kg/ha, preemergence, 3-4 weeks after treatment
How it was run: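 This preemergence test mimicked flooded paddy conditions: rice flatsedge propagules were sown in the upper 0.5 cm of silt loam in undrained 32 oz. containers (10.5 cm diameter), with water held 1.5 to 3 cm over the soil. After normal greenhouse care, plants were scored 0-9 for stand, vigor, malformation, size, chlorosis and appearance relative to controls.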

[9] = system: ECHINOCHLOA CRUS-GALLI, (L) BEAU; experiment: Postemergence herbicidal evaluation, ECHCG (Barnyardgrass); details: rated four to five weeks after treatment, averaged
How it was run: (§5)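 Application to seedlings around two weeks old: test compound in 50/50 acetone/water, 0.5% TWEEN 20, sprayed at 40 psi for roughly 0.125–0.500 kg/ha. Evaluation: 0–9 visual scale after 4–5 weeks, replicates averaged.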

[10] = system: SETARIA VIRIDIS, (L) BEAU; experiment: Postemergence herbicidal evaluation, SETVI (Foxtail, Green); details: rated four to five weeks after treatment, averaged
How it was run: as §5

Structure (SMILES) | Herbicidal effect rating, ECHORC ([2]; 0.500 kg/ha) | Herbicidal effect rating, ORYSAT ([3]; 0.125 kg/ha) | Herbicidal effect rating, ORYSAT ([3]; 0.250 kg/ha) | Herbicidal effect rating, ORYSAT ([3]; 0.500 kg/ha) | Herbicidal effect rating, MOOVA ([…], PRESL.; 0.500 kg/ha) | GALAP herbicidal rating (GALIUM APARINE [5]; Rate 0.500 kg/ha) | Herbicidal effect rating, CYPSE ([6]; 0.063 kg/ha) | Herbicidal effect rating, CYPSE ([6]; 0.125 kg/ha) | Herbicidal effect rating, CYPSE ([6]; 0.250 kg/ha) | Herbicidal effect rating, CYPSE ([6]; 0.500 kg/ha) | Herbicidal effect rating, SAGPY (SAGITTARIA PYGMAEA, L.; 0.063 kg/ha) | Herbicidal effect rating, SAGPY (SAGITTARIA PYGMAEA, L.; 0.125 kg/ha) | Herbicidal effect rating, SAGPY (SAGITTARIA PYGMAEA, L.; 0.250 kg/ha) | Herbicidal effect rating, SAGPY (SAGITTARIA PYGMAEA, L.; 0.500 kg/ha) | CASOB herbicidal rating (CASSIA OBTUSIFOLIA, L.) | Herbicidal effect rating, ORYSAT ([3]; 0.063 kg/ha) | other results
Cn1c(=O)n(CC(=O)OC(C)(C)C)c(=O)n(-c2cc(Oc3c(F)cc(C(F)(F)F)cc3Cl)ccc2[N+](=O)[O-])c1=O [Compound 17, Tert-butyl 3-{5-[(2-chloro-α,α,α,6-tetra-fluoro-p-tolyl)oxy]-2-nitrophenyl}tetra-hydro-5-methyl-2,4,6-trioxo-s-triazine-1(2H)-acetate] | 9.0 | 3.0 | 3.0 | 2.0 | 9.0 | 9.0 |  |  |  |  |  |  |  |  |  |  | ABUTH, herbicide rating (0-9) ([1]; Rate 0.125 kg/ha): 9.0; ABUTH, herbicide rating (0-9) ([1]; Rate 0.250 kg/ha): 9.0; ABUTH, herbicide rating (0-9) ([1]; Rate 0.500 kg/ha): 9.0; CHEAL herbicidal rating (CHENOPODIUM ALBUM, L.; Rate 0.125 kg/ha): 9.0; CHEAL herbicidal rating (CHENOPODIUM ALBUM, L.; Rate 0.250 kg/ha): 9.0; CHEAL herbicidal rating (CHENOPODIUM ALBUM, L.; Rate 0.500 kg/ha): 9.0; Herbicidal effect rating, ECHORC ([2]; 0.125 kg/ha): 9.0; Herbicidal effect rating, ECHORC ([2]; 0.250 kg/ha): 9.0; ECHCG herbicidal rating ([4]; Rate 0.125 kg/ha): 0.0; ECHCG herbicidal rating ([4]; Rate 0.250 kg/ha): 0.0; ECHCG herbicidal rating ([4]; Rate 0.500 kg/ha): 0.0; Herbicidal effect rating, MOOVA ([…], PRESL.; 0.125 kg/ha): 9.0; Herbicidal effect rating, MOOVA ([…], PRESL.; 0.250 kg/ha): 9.0; ZEAMX herbicidal rating (ZEA MAYS L.; Rate 0.125 kg/ha): 0.0; ZEAMX herbicidal rating (ZEA MAYS L.; Rate 0.250 kg/ha): 0.0; ZEAMX herbicidal rating (ZEA MAYS L.; Rate 0.500 kg/ha): 0.0; GALAP herbicidal rating (GALIUM APARINE [5]; Rate 0.125 kg/ha): 9.0; GALAP herbicidal rating (GALIUM APARINE [5]; Rate 0.250 kg/ha): 9.0
COC(=O)Cn1c(=O)n(C)c(=O)n(-c2cc(Oc3ccc(F)cc3C(F)(F)F)ccc2[N+](=O)[O-])c1=O [Compound 21] |  | 0.0 | 0.0 | 0.5 |  | 9.0 | 0.0 | 0.0 | 0.0 | 0.0 | 0.0 | 0.0 | 0.0 | 0.0 | 7.0 | 0.0 | GLXMAW, herbicide rating (0-9) ([7]; Rate 0.125 kg/ha): 4.0; GLXMAW, herbicide rating (0-9) ([7]; Rate 0.250 kg/ha): 4.0; GLXMAW, herbicide rating (0-9) ([7]; Rate 0.500 kg/ha): 4.0
COC(=O)Cn1c(=O)n(C)c(=O)n(-c2cc(Oc3ccc([N+](=O)[O-])cc3F)ccc2[N+](=O)[O-])c1=O [Compound 24, Methyl 3-[5-(2-fluoro-4-nitrophenoxy)-2-nitrophenyl]tetrahydro-5-methyl-2,4,6-trioxo-s-triazine-1(2H)-acetate] | 0.0 |  |  | 0.0 | 0.0 | 0.0 |  |  |  | 0.0 |  |  |  | 0.0 | 0.0 |  | GALAP, herbicide rating (0-9) (GALIUM APARINE [8]; Rate 0.125 kg/ha): 2.0; GALAP, herbicide rating (0-9) (GALIUM APARINE [8]; Rate 0.250 kg/ha): 2.0; GALAP, herbicide rating (0-9) (GALIUM APARINE [8]; Rate 0.500 kg/ha): 2.0; Herbicidal effect rating, CYPIR (CYPERUS IRIA): 0.0; ECHCG, herbicide rating (0-9) ([9]; Rate 0.125 kg/ha): 0.0; ECHCG, herbicide rating (0-9) ([9]; Rate 0.250 kg/ha): 0.0; ECHCG, herbicide rating (0-9) ([9]; Rate 0.500 kg/ha): 0.0; SETVI, herbicide rating (0-9) ([10]; Rate 0.125 kg/ha): 0.0; SETVI, herbicide rating (0-9) ([10]; Rate 0.250 kg/ha): 0.0; SETVI, herbicide rating (0-9) ([10]; Rate 0.500 kg/ha): 0.0
COC(=O)Cn1c(=O)n(C)c(=O)n(-c2cc(Oc3cccc(Cl)c3Cl)ccc2[N+](=O)[O-])c1=O [Compound 22, Methyl 3-[5-(2,3-dichlorophenoxy)-2-nitrophenyl]tetrahydro-5-methyl-2,4,6-trioxo-s-triazine-1(2H)-acetate] |  | 0.0 | 0.0 | 2.0 |  | 0.0 | 0.0 | 0.0 | 0.0 | 0.0 | 0.0 | 0.0 | 0.0 | 0.0 | 3.0 | 0.0 | 
COC(=O)Cn1c(=O)n(C)c(=O)n(-c2cc(Oc3ccc(F)c(F)c3F)ccc2[N+](=O)[O-])c1=O [Compound 27, Methyl tetrahydro-3-methyl-5-[2-nitro-5-(2,3,4-trifluorophenoxy)phenyl]-2,4,6-trioxo-s-triazine-1(2H)-acetate] |  | 1.0 | 2.0 | 1.5 |  | 8.0 | 0.0 | 0.0 | 0.0 | 0.0 | 0.0 | 0.0 | 0.0 | 0.0 | 0.0 | 0.0 | 

Source: EP0745595A1, “3-(3-Aryloxyphenyl)-1-(substituted methyl)-s-triazine-2,4,6-oxo or thiotrione herbicidal agents” (American Cyanamid Company, priority 1995, dated 1996)
